Results from patent US20240318142A1, “METHOD FOR PRODUCING RENAL INTERSTITIAL PROGENITOR CELLS, ERYTHROPOIETIN-PRODUCING CELLS, AND METHOD FOR PRODUCING RENIN-PRODUCING CELLS” (KYOTO UNIVERSITY, priority 2021, published 2024).

How the values were obtained:
[1] = test system: hiPSC-derived IPCs; assay: qRT-PCR of EPO after further differentiation induction from IPCs (renal EPO-producing cells); type: cell-based, human; settings: for EPO expression: SHH signal modulators under induction conditions using CHIR99021, RA, and A83-01, Days 11 to 14; for EPO expression / effect on the SAG-induced EPO up-regulation: FIG. 15; for effect on the SAG-induced EPO up-regulation: modulator together with SAG 500 nM, CHIR99021, RA, and A83-01; for EPO expression compared to the combination of SB431542 and SAG: combination of A83-01 and SAG in CFR medium, FIG. 10
Procedure: (§1) FIG. 9 is a diagram illustrating results of qRT-PCR analysis of EPO and renin carried out on Days 11 to 14, that is, after obtaining renal interstitial progenitor cells, for comparison of the effects of combinations of candidate differentiation induction factors for renal EPO-producing cells or renin-producing cells. The SAG concentration was 500 nM, and the concentrations of SB and CHIR are expressed in the unit of μM.
(§2) FIG. 10 is a diagram illustrating results of qRT-PCR analysis of EPO and renin on Days 11 to 14, that is, after obtaining renal interstitial progenitor cells, for comparison of the effects of combinations of various candidate differentiation induction factors. The SAG concentration was 500 nM; the concentrations of SB and A83 are expressed in the unit of μM; LDN is expressed in the unit of nM; and TGFβ1, BMP7, and activin (ACT) are expressed in the unit of ng/mL.
FIG. 15 is a diagram illustrating results of qRT-PCR analysis of EPO carried out on Days 11 to 14, that is, after obtaining renal interstitial progenitor cells, for comparison of the effects of various Sonic Hedgehog (SHH) signal modulators under induction conditions using CHIR99021, RA, and A83-01. So, Vi, Pu, Sa, and Ga represent sonidegib, vismodegib, purmophamine, SANT-1, and GANT61, respectively, and their concentrations are expressed in the unit of μM. The concentration of SAG was 500 nM, and the concentration of SHH was 100 ng/mL.
(§3) First, using the IPCs on Day 11, culture was performed under 5% O2 hypoxic conditions in the presence of FG-4592 (N-[(4-hydroxy-1-methyl-7-phenoxy-3-isoquinolinyl)carbonyl]-glycine) and RA with addition of various factors. By measuring the expression of EPO and renin, screening for induction factors for renin-producing cells and renal EPO-producing cells was carried out.
Subsequently, the effects of various SHH signal modulators in a system for differentiation induction from IPCs to EPO-producing cells were investigated (FIG. 15). Several SMO antagonists (sonidegib, vismodegib, and SANT-1) and agonists (SAG and purmophamine), a GLI1 inhibitor (GANT61), and human SHH protein were tested.

[2] = test system: PPS cells obtained by differentiation induction from human iPS cells; assay: Induction of FOXD1-positive renal interstitial progenitor cells (IPC) from PPS cells, flow cytometric analysis (FOXD1 and OSR1) on Day 11; type: cell-based; settings: for induction efficiency for OSR1-positive FOXD1-positive cells: addition of IL-1β (10 ng/mL) and SAG (500 nM) together on Days 6 to 8, FIG. 6
Procedure: FIG. 3 is a diagram illustrating results of flow cytometric analysis (FOXD1 and OSR1), carried out on Day 11, of cells that were treated with various combinations of factors during the differentiation induction period of Days 6 to 11 (the period corresponding to “Screening” in FIG. 1). The following concentrations were employed: 1 μM CHIR99021 (CHIR), 10 μM SB431542 (SB), 100 nM retinoic acid (RA), 200 ng/mL FGF9, and 25 ng/mL Noggin.
FIG. 5 is a diagram illustrating results of flow cytometric analysis (FOXD1 and OSR1), carried out on Day 11, of cells that were treated or not treated with Smoothened Agonist (SAG) (concentration, 500 nM) during the differentiation induction period of Days 6 to 8. ** indicates p<0.01 (Student's t-test), and NS indicates “no significant difference”.
FIG. 6 is a diagram illustrating results of flow cytometric analysis (FOXD1 and OSR1), carried out on Day 11, of cells that were treated with various factors during the differentiation induction period of Days 6 to 8. The following concentrations were employed: 1 μM CHIR, 10% Wnt3a, 200 ng/mLRSPO1 (R-Spondin-1), 500 nM SAG, 10 ng/mL IL-1β, 50 ng/mL Estradiol, and 10 ng/mL TGFβ1.
Human iPS cells (hiPSCs) (17K6:OSR1-GFP/FOXD1-tdTomato double knock-in hiPSCs) were first subjected to enzyme treatment for 5 minutes using a 1:1 mixture of TrypLE Select Enzyme (Thermo Fisher Scientific) and 0.5 mM EDTA/PBS, and then washed with PBS(−). Thereafter, the cells were detached using a cell scraper, and then dissociated into single cells by gentle pipetting. One day before the start of differentiation, the cells were plated into a 24-well plate (CORNING) at a density of 1.3×10^4 cells/cm^2 together with 0.5 mL of Stem Fit AK02N (Ajinomoto Healthy Supply Co., Inc.) supplemented with 10 μM Y-27632 and 2.4 μL/mL iMatrix-511 (Matrixome). Twenty-four hours later (Day 0), 5 μM CHIR99021 (Wako), 10 nM RA (Sigma), 1 ng/mL BMP4 (Peprotech), and 100 ng/mL bFGF (Wako) were added to a serum-free differentiation medium comprising DMEM/F12 Glutamax (Thermo Fisher Scientific), B27 supplement minus vitamin A (Thermo Fisher Scientific), and 0.5× penicillin/streptomycin (hereinafter referred to as basal medium), and then culture was started. Twenty-four hours thereafter (Day 1), culture was performed with a basal medium supplemented with 5 μM CHIR99021, 100 ng/mL bFGF, and 1 ng/mL BMP7 (R&D Systems). On Day 2, the medium was switched to a basal medium supplemented with 5 μM CHIR99021, 1 ng/mL BMP7, and 10 μM A83-01 (Wako). On Day 3, the medium was switched to a basal medium supplemented with 5 μM CHIR99021, 30 ng/mL bFGF, 10 ng/mL activin A (R&D Systems), and 30 μM Y-27632 (Wako). On Day 4, the cells were washed with PBS(−), treated with Accumax (Innovative Cell Technologies), and then dissociated into single cells by gentle pipetting, followed by plating into a 24-well plate (CORNING) at a density of 1.05×10^5 cells/cm^2 (2D culture) or plating into a 96-well low-cell-adhesive plate (Thermo Fisher Scientific) at a density of 2.0×10^4 cells/cm^2 (3D culture). Culture was performed for 48 hours using a basal medium supplemented with 5 μM CHIR99021, 30 ng/mL bFGF, 10 ng/mL activin A, and 30 μM Y-27632 (in addition, 1.2 μL/well iMatrix-511 or a laminin-E8 fragment library in the case of 2D culture). By this, HOXC10- and CITED1-positive PPS cells were induced.
For the PPS cells on Day 6 of the culture protocol in FIG. 1, several differentiation induction conditions were tested by combining various factors. […]

[3] = test system: hiPSC-derived IPCs; assay: qRT-PCR of renin and mesangial/JG cell markers after further differentiation induction from IPCs (renin-producing cells); type: cell-based, human
Procedure: as §1, §2
FIG. 11 is a diagram illustrating results of qRT-PCR analysis of renin on Days 11 to 14, that is, after obtaining renal interstitial progenitor cells, for comparison of the effects of various factors. In the presence of CHIR99021, RA, and FG-4592 (CFR), the effects of BMP4, BMP5, and BMP7 (10 ng/mL or 100 ng/mL) were investigated under conditions with or without treatment by SB431542 (1 μM). SB is expressed in the unit of […], and TGFβ1 and ACT are expressed in the unit of ng/mL.
FIG. 12 is a diagram illustrating results of qRT-PCR analysis of marker expression for the mesangial cell lineage (GATA3, renin, and GJA5) and IPCs (FOXD1) at Hour 0 and Hour 96 after treatment with CFR+BMP7+SB. iPSC represents the control.
FIG. 13 is a diagram illustrating results of qRT-PCR analysis of cells that were subjected to treatment under hypoxic (CFR+B7+SB in 5% O2) or normal oxygen (CFR+B7+SB minus FG-4592 in 20% O2) conditions on Days 11 to 15, that is, after obtaining renal interstitial progenitor cells, which analysis was carried out for markers for JG (renin and GJA4) and mesangial cells (EBF1, GJA5, ITGA8, and GATA3). * indicates p<0.05; ** indicates p<0.01; and NS indicates “no significant difference” (Student's t-test).
FIG. 14 is a diagram illustrating results of qRT-PCR analysis of cells that were subjected to treatment with VEGF (100 ng/mL) or axitinib (3 μM) and also to treatment under hypoxic conditions (CFR+B7+SB in 5% O2) or normal conditions (CFR+B7+SB minus FG-4592 in 20% O2) on Days 11 to 15, that is, after obtaining renal interstitial progenitor cells, which analysis was carried out for markers for JG (renin and GJA4), mesangial cells (EBF1, GJA5, ITGA8, and GATA3), and VEGFA.
as §3

[4] = BMP (10 or 100 ng/mL) added to CFR medium in the presence of SB431542 (1 μM), FIG. 11

In the case of c1ccc2c(Oc3nc(Nc4ccc(N5CCOCC5)cc4)c4ncn(C5CCCCC5)c4n3)cccc2c1 [purmophamine, 9-cyclohexyl-N-[4-(4-morpholinyl)phenyl]-2-(1-naphthalenyloxy)-9H-purine-6-amine], the EPO expression [1] is reported as “up-regulation of EPO”.

With “IL-1β: interleukin-1β, preferably human IL-1β protein” the “induction efficiency for OSR1-positive FOXD1-positive cells” value [2] was “increases”.

With VEGF the “expression of markers for juxtaglomerular (JG) cells and mesangial cells” value ([3]; VEGF 100 ng/mL added to CFR+B7+SB, Days 11 to 15, FIG. 14) was “increases”.

CS(=O)(=O)c1ccc(C(=O)Nc2ccc(Cl)c(-c3ccccn3)c2)c(Cl)c1 [vismodegib] was tested, and the “effect on the SAG-induced EPO up-regulation” value (shortened to “effect”) [1] was “reduced the effect of SAG”.

For Cc1c(C(=O)Nc2ccc(N3C[C@@H](C)O[C@@H](C)C3)nc2)cccc1-c1ccc(OC(F)(F)F)cc1 [sonidegib], the “effect” value [1] was “reduced the effect of SAG”.

For CNC1CCC(N(Cc2cccc(-c3ccncc3)c2)C(=O)c2sc3ccccc3c2Cl)CC1 (stereo not shown) [SAG], the “induction efficiency for FOXD1-positive cells” value ([2]; SAG 500 nM added on Days 6 to 8 to CHIR99021+SB431542+RA, FIG. 5) was “further increased”, the “induction efficiency for OSR1-positive FOXD1-positive cells” value [2] was “increases” and the EPO expression [1] was “up-regulation of EPO”. The “EPO expression compared to the combination of SB431542 and SAG” value [1] was “higher EPO expression” and the “expression of EPO” value ([1]; combination of SB431542 and SAG (500 nM), 5% O2, FG-4592 and RA present, FIG. 9) was “increase the expression of EPO”.

CN(C)c1ccccc1CN1CCCN(Cc2ccccc2N(C)C)C1c1ccncc1 [GANT61] was tested, and the “effect” value [1] was “did not reduce the effect of SAG”.

With Cc1nn(-c2ccccc2)c(C)c1/C=N/N1CCN(Cc2ccccc2)CC1 [SANT-1] the “effect” value [1] was “reduced the effect of SAG”.

In the case of Cc1cccc(-c2nn(C(=S)Nc3ccccc3)cc2-c2ccnc3ccccc23)n1 [A83-01], the “EPO expression compared to the combination of SB431542 and SAG” value [1] is reported as “higher EPO expression”.

Cc1c[nH]c(-c2cnc(NCCNc3ccc(C#N)cn3)nc2-c2ccc(Cl)cc2Cl)n1 [CHIR99021] was tested, and the “induction of FOXD1-positive cells” value ([2]; 5 days of treatment (Days 6 to 11) with the combination CHIR99021 1 μM, SB431542 10 μM and RA 100 nM, FIG. 3) was “could be induced” and the expression of renin ([3]; combination of CHIR99021 and SB431542, absence of SAG, 5% O2, FG-4592 and RA present, FIG. 9) was “increase the expression of renin”.

B1: BMP7: bone morphogenetic protein 7 (protein, UniProt P18075 293-431, looked up)
Bone morphogenetic protein 7: STGSKQRSQNRSKTPKNQEALRMANVAENSSSDQRQACKKHELYVSFRDLGWQDWIIAPEGYAAYYCEGECAFPLNSYMNATNHAIVQTLVHFINPETVPKPCCAPTQLNAISVLYFDDSSNVILKKYRNMVVRACGCH
For B1, the expression of renin [3, 4] was “high expression of renin” and the expression of renin ([3]; added to CFR medium (CHIR99021, FG-4592, RA), absence of SAG, FIG. 10) was “positively affected”.

B2: BMP5: bone morphogenetic protein 5 (protein, UniProt P22003 317-454, looked up)
Bone morphogenetic protein 5: AANKRKNQNRNKSSSHQDSSRMSSVGDYNTSEQKQACKKHELYVSFRDLGWQDWIIAPEGYAAFYCDGECSFPLNAHMNATNHAIVQTLVHLMFPDHVPKPCCAPTKLNAISVLYFDDSSNVILKKYRNMVVRSCGCH
For B2, the expression of renin [3, 4] was “high expression of renin”.

B3: BMP4: bone morphogenetic protein 4 (protein, UniProt P12644 293-408, looked up)
Bone morphogenetic protein 4: SPKHHSQRARKKNKNCRRHSLYVDFSDVGWNDWIVAPPGYQAFYCHGDCPFPLADHLNSTNHAIVQTLVNSVNSSIPKACCVPTELSAISMLYLDEYDKVVLKNYQEMVVEGCGCR
With B3 the expression of renin [3, 4] was “high expression of renin”.
